In the NIST ThermoML archive (doi:10.1021/je800945e):
Numbers after ± are expanded uncertainties.

Conditions: Crystal; visual observation

SMILES: Nc1cccnc1 [β-aminopyridine]
- Normal melting temperature: 64.50 ± 0.5 °C
